Patent publication US20230295235A1, “COMPOUNDS TARGETING ALPHA4-BETA7 INTEGRIN” (ZEALAND PHARMA A/S, priority 2020, published 2023)

Legend:
[1] = system: integrin α4β7+ T helper memory lymphocytes in mesenteric lymph nodes; experiment: In vivo T lymphocyte trafficking analysis in DSS mouse model of colitis
Description: Animal care: The animal care facility employed is accredited by the Canadian Council on Animal Care (CCAC). This study was approved by a certified Animal Care Committee and complied with CACC standards and regulations governing the use of animals for research. The animals were housed under standardized environmental conditions. A standard certified commercial rodent diet was provided ad libitum. Tap water was provided ad libitum at all times.
Dextran sulfate sodium (DSS) was administered to C57BL/6 female mice for five days through addition to their drinking water at 3%. Body weight and disease activity index (“DAI”) were measured on day 5 in order to distribute DSS-treated animals in uniform groups prior to dosing. DAI was scored based on the severity of three specific symptoms associated with colitis: 1- blood in stool (negative hemoccult, positive hemoccult, blood traces in stool visible, rectal bleeding); 2- stool consistency (normal, soft but still formed, very soft, diarrhea); 3- body weight loss.
From day 6 to day 9, the compound of Example 1 or the vehicle were administered orally daily at 5 mL/kg. […] Cell populations were then analyzed using FACSCanto cytometer and gating on CD4+, CD44^hi, CD45RB^low, α4β7+.
Statistical analysis was performed using GraphPad Prism. Differences among groups were evaluated by two-way ANOVA, with a 95% confidence interval. […]

[2] = system: DSS induced ulcerative colitis; experiment: DSS induced chronic colitis (ulcerative colitis) mouse model; assay type: in vivo
Description: The current study was conducted in the mice model of dextran Sodium Sulfate (DSS) induced ulcerative colitis (UC). DSS induces chronic colitis in experimental animals when given orally in drinking water for 7 days followed by no DSS in drinking water. Chronic intestinal inflammation is associated with body weight loss, diarrhea, blood in the stool and the infiltration of leucocytes from the blood to intestinal tissue. Among those cells, subpopulations of T lymphocytes such as Th1 and Th17 play an important role in the initiation and chronicity of inflammation. Trafficking of T cells from blood to target tissue is a complex process that is controlled by molecularly distinct adhesion and signaling steps. As such, the α4β7 and MAdCAM-1 adhesion mechanism may be closely involved in lymphocyte trafficking to the site of inflammation in the gut.
Evaluation of the therapeutic potential of the compound of Example 1 (cpd 1) in a mouse model of Dextran Sodium Sulfate (DSS) induced ulcerative colitis (UC)
Female C57BI/6 mice (Charles River, St-Constant, Qc), weighting 15-20 g at delivery were used for this study. Following arrival in the animal facility, all animals were subjected to a general health evaluation. […]
Specific symptoms associated to UC were scored based on the severity of each particular symptoms: • 1- blood in stool (negative hemoccult, positive hemoccult, visible blood traces in stool, rectal bleeding); • 2- stool consistency (normal, soft, diarrhea); • 3- body weight loss (score 0: 0-1 %; 1: 1.5-5%; 2: 5.5-10%; 3: 10.5-15 %; 4: 15.5-20 %; 5: >20%). […]
Once the mouse was euthanized, the colon was collected, and its length was measured. Lesion length was also measured. Colon lesions was scored macroscopically based on inflammation, thickening and vascularization to give an overall macroscopic inflammation score of each animal in the study. […]
Statistical differences among groups were determined using a two-way ANOVA, followed by a post-hoc analysis, using Tukey’s multiple comparison test, to compare each group to the DSS+vehicle control group. […]

CC(C)C[C@@H]1NC(=O)c2ccc(-c3ccc(N4CCN(C(=O)c5ccccc5-c5ccccc5C(=O)N5CCN(c6ccc(-c7ccc8cc7CNC(=O)[C@@H]7CCCN7[C@H](C(=O)NC(C)(C)C)[C@H](C)NC(=O)[C@H]([C@@H](C)O)NC(=O)[C@H](CC(=O)O)NC(=O)[C@H](CC(C)C)NC8=O)cc6)CC5)CC4)cc3)c(c2)CNC(=O)[C@@H]2CCCN2[C@H](C(=O)NC(C)(C)C)[C@H](C)NC(=O)[C@H]([C@@H](C)O)NC(=O)[C@H](CC(=O)O)NC1=O [Example 1, 2,2′-((S,S,S,S,S,S,1^2,8S,11S,14S,17S,18S)-((([1,1′-Biphenyl]-2,2′-Dicarbonyl)-Bis(Piperazine-4,1-Diyl))Bis(4,1-Phenylene))Bis(18-(Tert-Butylcarbamoyl)-14-((R)-1-Hydroxyethyl)-8-Isobutyl-17-Methyl-2,6,9,12,15-Pentaoxo-3,7,10,13,16-Pentaaza-1(2,1)-Pyrrolidina-5(1,3)-Benzenacyclooctadecaphane-5^6,11-Diyl))-Diacetic Acid]
reduction in α4β7+ T cells in the mesenteric lymph nodes ([1]; 100 mg/kg orally daily day 6 to 9, DSS-treated C57BL/6 female mice, vs DSS alone): 60% | detection of integrin α4β7+ T helper memory lymphocytes in the mesenteric lymph nodes (MLN) ([1]; 10, 30 or 100 mg/kg orally daily day 6 to 9, DSS-treated mice): reduced the detection of integrin α4β7+ T helper memory lymphocytes | effect on DAI score ([2]; 100 mg/kg p.o. once daily day 0-14, DSS mice, vs DSS + vehicle): did not lead to any beneficial effect | macroscopic inflammation score, % less than DSS + vehicle ([2]; 100 mg/kg p.o. once daily day 0-14, colon at day 14, significant difference): around 30% | MPO U/g colon protein, % less than DSS + vehicle ([2]; 100 mg/kg p.o. once daily day 0-14, medio-distal colon, ELISA, not statistically significant): approximately 49%
